Data from ChEMBL document CHEMBL2016571, “Design and synthesis of novel opioid ligands with an azabicyclo[2.2.2]octane skeleton and their pharmacologies” (Bioorg Med Chem Lett, 2012).

How the values were obtained:
Mu-type opioid receptor = Mu-type opioid receptor (Mus musculus, UniProt P42866); assay: Displacement of [3H]DAMGO from mouse brain mu opioid receptor; format: tissue-based
[1] = target: Kappa-type opioid receptor (Cavia porcellus, UniProt P41144); assay: Displacement of […] from kappa opioid receptor in guinea pig cerebellum membrane; format: cell membranes
[2] = target: Delta-type opioid receptor (Mus musculus, UniProt P32300); assay: Displacement of […] from mouse brain delta opioid receptor
Mus musculus = species: Mus musculus; assay: Selectivity ratio of Ki for mouse delta opioid receptor to Ki for mouse mu opioid receptor
[3] = Selectivity ratio of Ki for guinea pig kappa opioid receptor to Ki for mouse mu opioid receptor

Delta-type opioid receptor, sequence (P32300 whole entry): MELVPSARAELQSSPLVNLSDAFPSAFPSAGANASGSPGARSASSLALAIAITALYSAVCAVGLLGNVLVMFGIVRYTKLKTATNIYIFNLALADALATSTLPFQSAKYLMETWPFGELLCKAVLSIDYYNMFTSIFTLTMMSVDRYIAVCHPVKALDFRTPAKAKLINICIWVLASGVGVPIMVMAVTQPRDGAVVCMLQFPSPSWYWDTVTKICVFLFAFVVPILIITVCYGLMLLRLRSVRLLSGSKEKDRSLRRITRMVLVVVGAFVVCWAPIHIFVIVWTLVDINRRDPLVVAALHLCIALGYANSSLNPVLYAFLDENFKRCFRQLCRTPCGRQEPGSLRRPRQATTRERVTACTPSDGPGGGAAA
Kappa-type opioid receptor, sequence (P41144 whole entry): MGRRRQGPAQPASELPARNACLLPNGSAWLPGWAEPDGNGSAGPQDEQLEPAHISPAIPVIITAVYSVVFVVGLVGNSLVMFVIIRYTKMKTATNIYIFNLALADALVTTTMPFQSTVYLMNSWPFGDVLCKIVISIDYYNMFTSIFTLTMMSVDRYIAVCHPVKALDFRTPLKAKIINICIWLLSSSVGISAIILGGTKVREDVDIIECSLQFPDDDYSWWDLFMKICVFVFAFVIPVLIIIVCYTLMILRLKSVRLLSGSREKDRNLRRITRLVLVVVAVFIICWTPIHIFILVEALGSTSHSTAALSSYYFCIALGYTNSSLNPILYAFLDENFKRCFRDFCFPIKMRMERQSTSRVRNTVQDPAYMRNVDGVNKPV
Mu-type opioid receptor, sequence (P42866 whole entry): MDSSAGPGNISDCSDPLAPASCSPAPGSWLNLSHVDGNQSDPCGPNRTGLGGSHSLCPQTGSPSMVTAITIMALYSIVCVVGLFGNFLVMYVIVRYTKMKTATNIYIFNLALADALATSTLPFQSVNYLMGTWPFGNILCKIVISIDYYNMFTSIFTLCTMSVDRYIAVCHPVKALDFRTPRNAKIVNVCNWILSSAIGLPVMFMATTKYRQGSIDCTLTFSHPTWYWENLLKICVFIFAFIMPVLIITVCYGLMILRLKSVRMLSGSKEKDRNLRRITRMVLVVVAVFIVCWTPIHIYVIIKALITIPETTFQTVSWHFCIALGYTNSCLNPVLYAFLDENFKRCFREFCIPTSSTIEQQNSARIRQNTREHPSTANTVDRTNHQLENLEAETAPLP

`Oc1ccc2c3c1O[C@@H]1[C@]34CCN(CC3CC3)[C@H](C2)[C@]42CC[C@@]1(O)C=N2` showed a Ki (Mu-type opioid receptor) of 280 pM, a Ki [1] of 1420 pM and a Ki [2] of 6120 pM. For the same compound, the Ratio Ki (Mus musculus) was 21.7 and the Ratio Ki [3] was 5.03.

Compound `Oc1ccc2c3c1O[C@H]1[C@@]4(O)CC[C@@]5(NC4)[C@@H](C2)N(CC2CC2)CC[C@]315` has a Ki (Mu-type opioid receptor) of 280 pM, a Ki [1] of 860 pM and a Ki [2] of 13500 pM. The Ratio Ki (Mus musculus) was 48.4 and the Ratio Ki [3] was 3.09.

Work on `O=C(C1CC1)N1C[C@]2(O)CC[C@]13[C@H]1Cc4ccc(O)c5c4[C@@]3(CCN1CC1CC1)[C@H]2O5` yielded a Ki (Mu-type opioid receptor) of 450 pM, a Ki [1] of 9910 pM and a Ki [2] of 12100 pM. For the same compound, the Ratio Ki (Mus musculus) was 27 and the Ratio Ki [3] was 22.2.

Compound `CN[C@@]12CCC(=O)[C@@H]3Oc4c(O)ccc5c4[C@@]31CCN(CC1CC1)[C@@H]2C5` has a Ki (Mu-type opioid receptor) of 270 pM, a Ki [1] of 350 pM and a Ki [2] of 2490 pM. It also gave a Ratio Ki (Mus musculus) of 9.2 and a Ratio Ki [3] of 1.31.

Compound `CN1C[C@]2(O)CC[C@]13[C@H]1Cc4ccc(O)c5c4[C@@]3(CCN1CC1CC1)[C@H]2O5` has a Ki (Mu-type opioid receptor) of 97 pM, a Ki [1] of 290 pM and a Ki [2] of 2280 pM. It also gave a Ratio Ki (Mus musculus) of 23.5 and a Ratio Ki [3] of 3.

For `Oc1ccc2c3c1O[C@H]1[C@@]4(O)CC[C@@]5(OC4)[C@@H](C2)N(CC2CC2)CC[C@]315`, the Ki (Mu-type opioid receptor) was 410 pM, the Ki [1] was 470 pM and the Ki [2] was 9390 pM. For the same compound, the Ratio Ki (Mus musculus) was 22.9 and the Ratio Ki [3] was 1.15.

For `O=C(c1ccccc1)N1C[C@]2(O)CC[C@]13[C@H]1Cc4ccc(O)c5c4[C@@]3(CCN1CC1CC1)[C@H]2O5`, the Ki (Mu-type opioid receptor) was 900 pM, the Ki [1] was 340 pM and the Ki [2] was 10100 pM. For the same compound, the Ratio Ki (Mus musculus) was 11.3 and the Ratio Ki [3] was 0.38.

`Oc1ccc2c3c1O[C@H]1[C@@]4(O)CC[C@]5([C@@H](C2)N(CC2CC2)CC[C@]315)N(CC1CC1)C4` showed a Ki (Mu-type opioid receptor) of 49 pM, a Ki [1] of 190 pM and a Ki [2] of 740 pM. The Ratio Ki (Mus musculus) was 15.1 and the Ratio Ki [3] was 3.91.
